Columns and labels:
Moesin [1] = molecular target: T1, Moesin (Homo sapiens, UniProt P26038); experiment: Cellular Thermal Shift Assay (CETSA); format: cell-based
Excerpt: CETSA: To further ascertain the binding between Moesin and small compounds, we are currently developing Cellular Thermal Shift Assay (CETSA), a convenient cell-based test for identifying target engagement between ligands (i.e. a drug candidate) and their protein targets (PMID:XXX). CETSA has been previously used to measure the binding of small molecules to Ezrin (another FERM protein similar to Moesin) in a cellular environment (PMID: 33003361). The assay consists of the measurement of the shift in thermal stability of the target protein (Moesin) in the presence of the small molecules. The apparent melting temperature (Tm), observed in the presence or the absence of a bioactive compound, can be evaluated by measuring the persistence of soluble protein at different temperatures. If the compound binds to the protein of interest, a shift in melting temperature is observed.

HMC3 cells = experiment: Flow cytometry of HLA-DR expression in IFNγ-stimulated HMC3 microglial cells; format: cell-based, Human; conditions: HMC3 cells pre-incubated 24 h, then stimulated with IFNγ
Excerpt: Once we define the binding using purified protein, we validate the binding in cells. We have done this through imaging by using the Lumio™ system for site-specific fluorescent labeling of recombinant proteins in living cells, flow cytometry assays, and cellular thermal shift assay (CETSA). • Lumio™ System Imaging: This recently developed method relies on FLASH (Fluorescein Arsenical Hairpin) technology, which uses biarsenical labeling reagents to bind and detect proteins containing a tetracysteine (TC) motif (Griffin et al., 1998). The biarsenical labeling reagents are nonfluorescent until they bind the TC motif at which time, they become highly fluorescent. Both, a genetically engineered CD44 containing a TC motif, and mCherry-Moesin, were co-transfected into Immortalized Human Microglia (SV40 cell line) (FIG. 5). Ongoing work is being done to optimize this protocol and adapt it for use with small compounds. • Flow Cytometry: Current studies of microglial activation are widely performed to study neuroinflammation and test small compounds and their anti-inflammatory properties. IFNγ was be used to activate macrophage response in HMC3 cells (Human microglial cell line, PMID: 30200996), while flow cytometry was employed in combination with small compounds. […] Reactive microglia expressing the histocompatibility glycoprotein HLA-DR were detected using flow cytometry. […]

Moesin [2] = molecular target: T1, Moesin; experiment: Saturation transfer difference NMR (STD-NMR) binding to Moesin
Excerpt: Following in silico docking, we (the inventors) triage binding using saturation transfer difference NMR (STD-NMR) as is routinely done in our laboratory to define binding of small molecules (see, Mollasalehi, N. et al. ACS Chem Biol, doi: 10.1021/acschembio.0c00494 (2020): Francois-Moutal, L. et al. ACS Chem Biol 14, 2006-2013, doi: 10.1021/acschembio.9b00481 (2019): François-Moutal, L. et al. ACS Chem Biol 13, 3000-3010, doi:10.1021/acschembio.8b00745 (2018)) (FIG. 2A). After testing the ability of all compounds to bind to Moesin. […] We then measured the affinity of binding using micro-scale thermophoresis (MST), a technique to quantify biomolecular interactions, based on thermophoresis. Concentration-dependent measurements were done using MST to determine dissociation constant for binding of P1 to Moesin and we obtained Apparent Kd=Xxx±xxx μM. Data are presented as mean±SD (n=3) (FIG. 3).

GST = GST (Schistosoma japonicum, UniProt P08515); experiment: STD-NMR binding to control GST; conditions: control protein
Moesin [3] = molecular target: T1, Moesin; experiment: Biophysical binding of P1 analogs (SAR); conditions: first round of analogs
Excerpt: Indeed, such experiments defined the known structural interactions between CD44, and Msn based on a co-crystal structure of this protein-protein complex. It was proposed that the binding of Msn through CD44 could be mimicked by small molecules. By performing in silico docking on the CD44 binding pocket, using a virtual screen of 50,000 compounds and 200,000 pharmacophores and guided by FERM domain-peptide co-crystal structures, such experiments identified druggable pockets in these FERM proteins. Top scoring compounds were tested for binding to recombinant purified FERM proteins using several biophysical methods.
• Before engaging in custom synthesis, we searched for additional commercially available analogs to expand SAR at the east part of the P1, keeping the piperidinemethyl-heterocycle constant (FIG. 7, red oval). A total of 4.2M compounds were searched for a match to P1 features. “Drug-like” ZINC database 2019 and ChemBridge catalogue provided P1 analogues commercially available. 18 compounds matching the search criteria were selected and tested for biophysical binding. […] Our next SAR analogs will thus include structural modifications that will explore hydrogen bond patterns and the size of the fragments in the 5-hydroxypiperonyl/pyrazolopyridine area. […]

T1 sequence (P26038 whole entry): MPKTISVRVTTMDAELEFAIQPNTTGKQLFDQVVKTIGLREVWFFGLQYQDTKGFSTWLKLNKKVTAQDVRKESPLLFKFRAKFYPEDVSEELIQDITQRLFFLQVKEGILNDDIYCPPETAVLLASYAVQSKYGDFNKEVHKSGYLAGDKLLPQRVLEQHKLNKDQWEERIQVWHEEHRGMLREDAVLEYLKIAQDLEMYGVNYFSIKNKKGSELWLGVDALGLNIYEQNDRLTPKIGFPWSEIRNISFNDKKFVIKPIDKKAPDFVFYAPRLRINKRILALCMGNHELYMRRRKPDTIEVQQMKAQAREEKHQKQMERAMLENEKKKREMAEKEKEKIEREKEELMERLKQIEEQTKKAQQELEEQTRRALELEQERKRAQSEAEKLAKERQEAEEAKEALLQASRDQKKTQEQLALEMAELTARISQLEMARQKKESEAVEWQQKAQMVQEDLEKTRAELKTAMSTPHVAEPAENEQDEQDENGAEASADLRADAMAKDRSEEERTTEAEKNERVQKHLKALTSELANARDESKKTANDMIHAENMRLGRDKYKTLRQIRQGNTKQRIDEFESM
Chain of GST (P08515 2-218 limits assumed): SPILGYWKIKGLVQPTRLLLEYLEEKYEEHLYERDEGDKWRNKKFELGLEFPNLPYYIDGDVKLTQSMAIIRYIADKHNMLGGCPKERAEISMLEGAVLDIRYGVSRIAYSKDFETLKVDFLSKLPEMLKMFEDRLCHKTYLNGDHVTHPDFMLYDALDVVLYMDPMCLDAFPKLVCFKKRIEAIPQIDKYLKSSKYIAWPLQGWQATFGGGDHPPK

Compound | shift in melting temperature of Moesin (Moesin [1]) | HLA-DR level (HMC3 cells) | binding to Moesin (Moesin [2]) | binding to the control GST (GST) | binding relative to P1 (Moesin [3])
CN1CCC(Cc2noc(CCc3nc4cccnc4n3C)n2)CC1 [P1] | discrete shift | reduced | binding specifically | did not bind | 
CC(Oc1ccc2c(c1)OCO2)c1nc(CC2CCN(C)CC2)no1 (centres unmarked) [Plsar3] |  |  |  |  | improved binding

From patent US20240207244A1, “COMPOSITIONS AND METHODS FOR TREATING NEURODEGENERATIVE DISORDERS THROUGH INHIBITION OF CD44 AND FERM PROTEIN INTERACTION” (Arizona Board of Regents on Behalf of the University of …, priority 2021, published 2024)
